The source of these data is patent US5468756A, “Imidazonaphthyridine derivatives” (Kyowa Hakko Kogyo Co., Ltd., priority 1990, dated 1995).

In data set [1] the test system is zymosan-induced paw edema. In words: Effect on zymosan-induced paw edema. It is filed as in vivo, male Wistar rats. The following applies: Rattus norvegicus, po, read-out: Suppression rate for paw swelling, zymosan-induced edema; for inhibition in vivo at 25 mg/kg: 25 mg/kg P.O. As for the experimental part:
(§1) Male Wistar rats weighing 150 to 160 g (n=3-5) were used in the experiment. After the right hind paw volume was measured with the plethysmograph (TK-101; Unicom Co., Ltd.), the test compound (25, 50 or 100 mg/kg) was orally administered. After one hour, 0.1 ml of 1% carrageenin (λ-carrageenin; PICNIN-A®, Zushi Kagaku Co., Ltd.) was subcutaneously injected into the right hind paw footpad. Three hours after the injection of carrageenin, the right hind paw volume was measured and the swelling rate was determined by the following equation 1. [formula] Vt: the right hind paw volume measured 3 hours after the injection of carrageenin
(§2) Vo: the right hind paw volume measured prior to the injection of carrageenin
(§3) The suppression rate was calculated by the following equation 2. [formula] Swt: the swelling rate of the group administered with the test compound Swc: the swelling rate of the control group administered with physiological saline solution
b) Effect on zymosan-induced paw edema
The experiment was carried out in the same manner as in the carrageenin-induced paw edema test except that 1% zymosan (Zymosan A®; Sigma Chemical Co.) was used in place of 1% carrageenin and the right hind paw volume was measured […] the injection of the edema-inducing substance instead of 3 hours. The swelling rate and the suppression rate were calculated by equation 1 and equation 2, respectively.

Data set [2] concerns carrageenin-induced paw edema. Description: Effect on carrageenin-induced paw edema. It is filed as in vivo, male Wistar rats. Particulars: Rattus norvegicus, 3 hours after carrageenin, read-out: Suppression rate for paw swelling, carrageenin-induced edema; for inhibition in vivo at 100 mg/kg: p.o.; for inhibition in vivo at 50 mg/kg: po, 50 mg/kg P.O. As for the experimental part:
a) Effect on carrageenin-induced paw edema
as §1, §2, §3
A general note: Carrageenan injected into the paw causes an acute inflammation.

The test system of data set [3] is passive Schultz-Dale reaction. In words: Effect on passive Schultz-Dale reaction (broncho-dilative activity), sensitized tracheal strips contracted by antigen. Also on record: species or system male Hartley guinea pigs. The following applies: guinea pig tracheal zig-zag strips, 37° C., antigen egg white albumin 1 μg/ml; read-out: Passive Schultz-Dale reaction IC50 (concentration of 50% relaxation rate). Summed up: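 Male Hartley guinea pigs were passively sensitized i.p. with rabbit anti-OA serum, and tracheal zig-zag strips were taken 24 h later. Compounds were added cumulatively at the plateau, and IC50 (50% relaxation) was taken from the regression line of the concentration-relaxation curves.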

Data set [4] has as its system Type III allergic reaction-induced pleurisy. Description: Effect on Type III allergic reaction-induced pleurisy. The format is in vivo, male Wistar rats. Particulars: 100 mg/kg orally; rats; 4.5 h after induction of pleurisy. Here is the method: c) Effect on Type III allergic reaction-induced pleurisy
1. Preparation of IgG fraction of rabbit anti-egg white albumin (anti-OA)
IgG was purified from rabbit anti-OA serum prepared in advance by the method of Koda et al. [Folia Pharmacol., Japon 66, 237, (1970)] in the following manner.
A saturated solution of ammonium sulfate (half volume of the serum) was added to the anti-OA serum, and the mixture was left for one hour at 4° C. The precipitate was taken by centrifugation (3,000 rpm, 30 min. 4° C.) and dissolved in phosphate buffer of Dulbecco. Then, ammonium sulfate fractionation was carried out three times in the same manner as above, whereby a purified IgG fraction was obtained.
2. Type III allergic reaction-induced pleurisy
Male Wistar rats weighing 225-250 g were pre-bred for several days and fasted overnight prior to the experiment. The test compound (100 mg/kg) was orally administered to the animals, and after 30 minutes, a solution of IgC of rabbit anti-OA (0.2 ml, 5 mg protein/ml) was injected into the pleural cavity of the animals from the right side of thorax under anesthesia with ether. Thirty minutes after the injection of IgG, OA (albumin egg grade III; Sigma Chemical Co.) was intravenously injected into the animals as an inducer of pleurisy. After two hours, Evans Blue (25 mg/kg) was intravenously injected, and four and a half hours after the induction of pleurisy, the animals were killed by bleeding.
Then, an exudate in the pleural cavity was obtained, and the volume of the exudate was measured. The pleural cavity was rinsed with 5 ml of physiological saline and the rinsings were added to the exudate. The number of infiltrated cells in the mixture was counted and the volume of the dye in the mixture was determined by the absorption at 625 nm [Agent Actions., 25, 326 (1988)]. The suppression rates for the volume of the exudate, the number of infiltrated cells and the volume of the dye in the pleural cavity were calculated by the following equation 3. [formula] […]

Data set [5] deals with platelet activating factor (PAF)-induced mortality. Description: Inhibition effect on platelet activating factor (PAF)-induced mortality. The format is in vivo, male dd mice. Particulars: Mus musculus, po, PAF 40 μg/kg i.v., 3 h, n = 10, control group survival 0-20%, read-out: Survival rate of test compound-administered group. Summed up:
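Male dd mice (28–32 g, 10 per group) dosed orally with 50 or 100 mg/kg compound or saline. PAF at 40 μg/kg given intravenously 1 h later; mortality recorded 3 h after PAF injection.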

The subject of the next data set is ddY strain male mice. Description: Acute toxicity (Minimum Lethal Dose). It is filed as in vivo. Here is the method: The test compound was orally and intraperitoneally administered to ddY strain male mice weighing 20 to 25 g. MLD (Minimum Lethal Dose) was determined by observing the mortality for […] after the administration.

Regarding `CCCCn1c(=O)c2ncn(C)c2c2cccnc21` [Compound 1, 5-(n-Butyl)-1-methyl-1H-imidazo[4,5-c][1,8]naphthyridin-4(5H)-one], the inhibition in vivo at 100 mg/kg in data set [1] came out at 38.8%. Also, in data set [2], the inhibition in vivo at 100 mg/kg came to 40.1%. For the same compound, the IC50 in data set [3] is 12 µM. In data set [4], the “Suppression rate, number of infiltrated cells in the exudate” value stood at 84.1%; the “Suppression rate, volume of dye in the exudate” value stood at 80.3%; the “Suppression rate, volume of exudate” value amounted to 100%. The responders at 100 mg/kg in data set [5] was 90%.
With `CCCCn1cnc2c3cccnc3n(-c3ccccc3)c(=O)c21` [Compound 11, 3-n-Butyl-5-phenyl-3H-imidazo[4,5-c][1,8]naphthyridin-4(5H)-one], the inhibition in vivo at 25 mg/kg in data set [1] is 55.5%. For the same compound, in the data set on ddY strain male mice, the “MLD (Minimum Lethal Dose) i.p.” value was above 100 mg/kg and the “MLD (Minimum Lethal Dose) p.o.” value is on record as above 200 mg/kg. Moreover, the inhibition in vivo at 100 mg/kg in data set [2] was 56.4%. Moreover, in data set [3], the IC50 was above 10 µM. In addition, the responders at 100 mg/kg in data set [5] was found to be 100%.
`CC(C)Cn1cnc2c3cccnc3n(-c3ccccc3)c(=O)c21` [Compound 12, 3-Isobutyl-5-phenyl-3H-imidazo[4,5-c][1,8]naphthyridin-4(5H)-one]: the inhibition in vivo at 25 mg/kg in data set [1] came to 69.7%. In addition, in the data set on ddY strain male mice, the “MLD (Minimum Lethal Dose) i.p.” value is recorded as above 50 mg/kg and the “MLD (Minimum Lethal Dose) p.o.” value is given as above 200 mg/kg. Moreover, the inhibition in vivo at 100 mg/kg in data set [2] came to 48.5%. Besides, the IC50 in data set [3] came out at 8.5 µM. For the same compound, the responders at 100 mg/kg in data set [5] turned out to be 100%.
With `O=c1c2c(ncn2Cc2ccccc2)c2cccnc2n1-c1ccccc1` [Compound 13, 3-Benzyl-5-phenyl-3H-imidazo[4,5-c][1,8]naphthyridin-4(5H)-one], the inhibition in vivo at 100 mg/kg in data set [1] was 65.1%; in data set [2], 58.1%. The “MLD (Minimum Lethal Dose) i.p.” value in the data set on ddY strain male mice was above 100 mg/kg. The “MLD (Minimum Lethal Dose) p.o.” value with ddY strain male mice was above 300 mg/kg. Moreover, the IC50 in data set [3] came to 1.3 µM. Moreover, in data set [5], the responders at 100 mg/kg worked out at 90%.
Regarding `CC(=O)Cn1cnc2c3cccnc3n(-c3ccccc3)c(=O)c21` [Compound 14, 3-(2-Oxopropyl)-5-phenyl-3H-imidazo[4,5-c][1,8]naphthyridin-4(5H)-one], the inhibition in vivo at 25 mg/kg in data set [1] was found to be 53.7%. Moreover, in the data set with ddY strain male mice, the “MLD (Minimum Lethal Dose) i.p.” value is reported as above 100 mg/kg and the “MLD (Minimum Lethal Dose) p.o.” value is on record as above 100 mg/kg. Further, the inhibition in vivo at 100 mg/kg in data set [2] was 44%. Further, the IC50 in data set [3] was 5.8 µM. Besides, the responders at 100 mg/kg in data set [5] was 100%.
As for `O=c1c2c(ncn2CCc2ccccc2)c2cccnc2n1-c1ccccc1` [Compound 15, 3-Phenethyl-5-phenyl-3H-imidazo[4,5-c][1,8]naphthyridin-4(5H)-one], the inhibition in vivo at 25 mg/kg in data set [1] came to 25.7%. In addition, in the data set on ddY strain male mice, the “MLD (Minimum Lethal Dose) i.p.” value is above 100 mg/kg and the “MLD (Minimum Lethal Dose) p.o.” value is above 300 mg/kg. For the same compound, the inhibition in vivo at 100 mg/kg in data set [2] was 5.2%. Further, the IC50 in data set [3] came out at 8.1 µM. Also, in data set [5], the responders at 100 mg/kg is 50%.
With `CCCCn1c(=O)c2c(ncn2CCC)c2cccnc21` [Compound 29, 5-n-Butyl-3-n-propyl-3H-imidazo[4,5-c][1,8]naphthyridin-4(5H)-one], in data set [1], the inhibition in vivo at 25 mg/kg turned out to be 21.1%. Moreover, in the data set with ddY strain male mice, the “MLD (Minimum Lethal Dose) i.p.” value is listed as above 100 mg/kg and the “MLD (Minimum Lethal Dose) p.o.” value is above 100 mg/kg. Moreover, the inhibition in vivo at 100 mg/kg in data set [2] amounted to 56.1%. Further, the IC50 in data set [3] amounted to 0.29 µM. Besides, in data set [5], the responders at 100 mg/kg was found to be 100%.
Regarding `CCOCCn1cnc2c3cccnc3n(-c3ccccc3)c(=O)c21` [Compound 31, 3-(Ethoxyethyl)-5-phenyl-3H-imidazo[4,5-c][1,8]naphthyridin-4(5H)-one], the inhibition in vivo at 25 mg/kg in data set [1] amounted to 57.4%. Further, in the data set with ddY strain male mice, the “MLD (Minimum Lethal Dose) i.p.” value is listed as above 100 mg/kg and the “MLD (Minimum Lethal Dose) p.o.” value is reported as above 300 mg/kg. Further, the inhibition in vivo at 100 mg/kg in data set [2] came to 60.6%. Moreover, in data set [3], the IC50 was determined as 0.13 µM. Moreover, the responders at 100 mg/kg in data set [5] stood at 90%.
Take `C=CCn1cnc2c3cccnc3n(-c3ccccc3)c(=O)c21` [Compound 33, 3-(2-propenyl)-5-phenyl-3H-imidazo[4,5-c][1,8]naphthyridin-4(5H)-one]: in data set [1], the inhibition in vivo at 25 mg/kg turned out to be 67.3%. In the data set on ddY strain male mice, the “MLD (Minimum Lethal Dose) i.p.” value is reported as above 100 mg/kg and the “MLD (Minimum Lethal Dose) p.o.” value is reported as above 300 mg/kg. Moreover, the inhibition in vivo at 50 mg/kg in data set [2] was determined as 67.8%. Moreover, the IC50 in data set [3] worked out at 0.0071 µM. Further, the responders at 100 mg/kg in data set [5] was 100%.
For `CC(=O)OCCn1cnc2c3cccnc3n(-c3ccccc3)c(=O)c21` [Compound 34, 3-(2-Acetoxyethyl)-5-phenyl-3H-imidazo[4,5-c][1,8]naphthyridin-4(5H)-one], the inhibition in vivo at 25 mg/kg in data set [1] came out at 41.6%. In the data set with ddY strain male mice, the “MLD (Minimum Lethal Dose) i.p.” value is listed as above 100 mg/kg and the “MLD (Minimum Lethal Dose) p.o.” value is on record as above 300 mg/kg. Moreover, in data set [2], the inhibition in vivo at 50 mg/kg was 42.2%. The IC50 in data set [3] stood at 0.68 µM. The responders at 100 mg/kg in data set [5] worked out at 70%.
As to `O=c1c2c(ncn2Cc2ccc(F)cc2)c2cccnc2n1-c1ccccc1` [Compound 44, 3-(4-Fluorophenyl)methyl-5-phenyl-3H-imidazo[4,5-c][1,8]naphthyridin-4(5H)-one], in data set [1], the inhibition in vivo at 25 mg/kg was 63.9%. In addition, in the data set with ddY strain male mice, the “MLD (Minimum Lethal Dose) i.p.” value is above 50 mg/kg and the “MLD (Minimum Lethal Dose) p.o.” value is on record as above 300 mg/kg. Moreover, the inhibition in vivo at 100 mg/kg in data set [2] came out at 42.8%. For the same compound, the IC50 in data set [3] was 6.6 µM. For the same compound, the responders at 100 mg/kg in data set [5] is 50%.
